Read-outs that look alike come from different tables or passages of the source.
How the values were obtained:
[1] = tested on: Enterococcus fecalis Strain MMH594 - NR31975; experiment: microbe, parasite or virus in culture; format: cell-based; details: Enterococcus, Table 4; Wild-type E. fecalis NR 31975
Method: (§1) The minimum inhibitory concentrations (MICs) of the compounds and control drugs were determined using the broth microdilution method, according to guidelines outlined by the Clinical and Laboratory Standards Institute (CLSI). Enterococci strains were grown aerobically overnight on tryptone soya agar plates at 37° C., afterwards a bacterial solution equivalent to 0.5 McFarland standard was prepared and diluted in tryptone soy broth (TSB) to achieve a bacterial concentration of about 5×10^5 CFU/mL and seeded in 96-well well plates. Compounds and control drugs were added in the first row of the 96-well plates and serially diluted along the plates. Plates were then incubated aerobically at 37° C. for 18-20 hours. MICs reported in Table 1 are the minimum concentration of the compounds/control drugs that could inhibit completely the visual growth of the bacteria.

[2] = tested on: Enterococcus faecium E417 - HM-965; experiment: MIC, broth microdilution (CLSI); format: cell-based; details: Enterococcus faecium, E417HM965, Table 1; TSB; read-out: MIC
[3] = tested on: Enterococcus faecium Patient #2-1 - NR-31909; experiment: MIC, broth microdilution (CLSI); format: cell-based; details: Enterococcus faecium, TSB, read-out: MIC
[4] = tested on: Enterococcus fecalis Strain SF 24397 NR31970; experiment: MIC, broth microdilution (CLSI); format: cell-based; details: Enterococcus, TSB, read-out: MIC
[5] = tested on: Enterococcus faecium Patient #3-1 NR-31912; experiment: MIC, broth microdilution (CLSI); format: cell-based; details: Enterococcus faecium, TSB, read-out: MIC
Method: as §1

[6] = tested on: Enterococcus fecalis Strain SF 28073 - NR31972; experiment: MIC, broth microdilution (CLSI); format: cell-based; details: Enterococcus, TSB, read-out: MIC
Method: as §1

[7] = tested on: Enterococcus fecalis Strain SF24413 NR31971; experiment: MIC, broth microdilution (CLSI); format: cell-based; details: Enterococcus, TSB, read-out: MIC
Method: as §1

[8] = tested on: Enterococcus faecalis S613 HM-334; experiment: MIC, broth microdilution (CLSI); format: cell-based; details: Enterococcus faecalis, read-out: MIC
[9] = tested on: Mutant-4 of Enterococcus fecalis NR 31975; experiment: microbe, parasite or virus in culture; format: cell-based
[10] = tested on: Mutant-8 of Enterococcus fecalis NR 31975; experiment: microbe, parasite or virus in culture; format: cell-based
[11] = tested on: Mutant-9 of Enterococcus fecalis NR 31975; experiment: microbe, parasite or virus in culture; format: cell-based
[12] = tested on: Mutant-11 of Enterococcus fecalis NR 31975; experiment: microbe, parasite or virus in culture; format: cell-based
[13] = tested on: Mutant-12 of Enterococcus fecalis NR 31975; experiment: microbe, parasite or virus in culture; format: cell-based
[14] = tested on: Caco-2 cells; experiment: In vitro cytotoxicity, MTS assay; details: concentration up to 128 μg/mL; two hours incubation
Method: Method: Compounds AS005H, AS005J, AS004B, AS005K, AS005A and 005D were assayed (at concentrations of 64 and 128 μg/mL) against a human colorectal adenocarcinoma (Caco-2) cell to determine the potential toxic effect to mammalian cells in vitro. Briefly, cells were cultured in Dulbecco's Modified Eagle Medium (DMEM) supplemented with 20% fetal bovine serum (FBS), non-essential amino acids (1×), penicillin-streptomycin at 37° C. with CO2 (5%). Control cells received DMSO alone at a concentration equal to that in drug-treated cell samples. The cells were incubated with the compounds (in triplicate) in a 96-well plate at 37° C. with CO2 (5%) for two hours. The assay reagent MTS 3-(4,5-dimethylthiazol-2-yl)-5-(3-carboxymethoxyphenyl)-2-(4-sulfophenyl)-2H-tetrazolium) (Promega, Madison, WI, USA) was subsequently added and the plate was incubated for four hours. Absorbance readings (at OD490) were taken using a kinetic microplate reader (Molecular Devices, Sunnyvale, CA, USA). The quantity of viable cells after treatment with each compound was expressed as a percentage of the viability of DMSO-treated control cells (average of triplicate wells±standard deviation). The toxicity data was analyzed via a two-way ANOVA, with post hoc Dunnet's multiple comparisons test (P<0.05), utilizing GraphPad Prism 6.0 (GraphPad Software, La Jolla, CA).
Percent viable mammalian cells (measured as average absorbance ratio (test agent relative to DMSO) for cytotoxicity analysis of AS005H, AS005J, AS004B, AS005K, AS005A and 005D compounds (tested in triplicate) at 64 and 128 μg/mL against Caco-2 cells using the MTS 3-(4,5-dimethylthiazol-2-yl)-5-(3-carboxymethoxyphenyl)-2-(4-sulfophenyl)-2H-tetrazolium) assay. Dimethyl sulfoxide (DMSO) was used as a negative control to determine a baseline measurement for the cytotoxic impact of each compound. The absorbance values represent an average of a minimum of three samples analyzed for each compound. Error bars represent standard deviation values for the absorbance values. A two-way ANOVA, with post hoc Dunnet's multiple comparisons test, determined statistical difference (denoted by the asterisk) (P<0.05) between the values obtained for each compound and DMSO (negative control, used as solvent for the compounds).

CC(C)=CC(=O)Nc1nnc(S(N)(=O)=O)s1 [CAI0016, 3-Methyl-N-(5-sulfamoyl-1,3,4-thiadiazol-2-yl)but-2-enamide]
8 µg/mL: MIC [9] | MIC [13]
> 256 µg/mL: MIC ([8]; S613HM334, Table 6, TSB in presence of 4% human serum albumin)
1 µg/mL: MIC [1] | MIC ([5]; Table 1)
4 µg/mL: MIC [10] | MIC [11] | MIC [12]
0.5 µg/mL: MIC ([3]; Table 1) | MIC ([4]; Table 1) | MIC ([5]; Table 7) | MIC ([6]; Table 1) | MIC ([6]; Table 7) | MIC ([7]; Table 1) | MIC ([7]; Table 7) | MIC ([8]; S613HM334, Table 1, TSB)
0.25 µg/mL: MIC [2] | MIC ([3]; Table 7) | MIC ([4]; Table 7) | MIC ([8]; S613HM334, Table 7, TSB)
non-toxic: toxicity to Caco-2 cells (percent viable cells, MTS) [14]
